Here are results for one compound from patent publication US10508113B2, “Inhibitors of tyrosine kinase 2 mediated signaling” (AbbVie Inc., priority 2018, dated 2019).

In general, pEC50 refers to the negative decadic logarithm of the EC50, by convention in mol/L. Read a low pEC50 as a high EC50.

The experiment concerns the target T1, Tyk2/Jak2 (Homo sapiens, UniProt P29597).
T1 construct: Cell Type: Frozen primary phytohemagglutinin (PHA) T-Blasts; endogenous in cells; host or cells: primary PHA T-blasts
Put plainly: Tyk2 (Tyk2/Jak2 PSTAT4 T-Blast) alpha screen assay: inhibition of IL-12 induced phosphorylation of STAT4 in T-blast cells. The settings on record: IL-12 induced pSTAT4, T-blast cells. It is filed as cell-based. The protocol:
1. TYK2 (TYK2/JAK2 PSTAT4 T-BLAST) ALPHA SCREEN ASSAY
IL-12 is known to transduce its signal through IL-12 receptor via Jak2 and/or Tyk2. For that reason, the activity against Tyk2/Jak2 was measured by determining the inhibition of IL-12 induced phosphorylation of STAT4 in T-blast cells. […] See, e.g., Sohn et al., J. Immunology (2013) 2205-2216.
Cell Type: Frozen primary phytohemagglutinin (PHA) T-Blasts; Culture Medium: Roswell Park Memorial Institute (RPMI) 1640 Medium, 10% heat-inactivated fetal bovine serum (FBS), 1% penicillin/streptomycin (Pen-Strep), 10 mM hydroxyethyl piperazineethanesulfonic acid (HEPES), 10 ng/mL recombinant human interleukin-12 (rhIL-12); Assay Medium: Hank's Balanced Salt Solution (HBSS), no phenol red.
i. Automated 11-point 1:3 dilution curve: 2.5 mM top concentration dispensed in column 1 of a Corning 96-well polypropylene plate. Dimethyl sulfoxide (DMSO) was added to column 12 for high and low controls. Compounds were serially diluted 1:3 by adding 20 uL stock to 40 μL DMSO across the plate via Hamilton Microlab Star instrument.
ii. Media dilution of compounds: Serially diluted compounds were diluted 1:50 in assay medium by adding 4 μL compound to 196 μL assay medium in a Corning 96-well polypropylene plate (now 2% DMSO).
iii. […]
Primary T-Blasts from overnight culture were centrifuged, washed once in assay medium, and pelleted. T-Blasts were counted and resuspended at 12,500,000 cells/mL. […]
Phosphorylated Signal Transducer and Activator of Transcription 4 (pSTAT4) was quantified using the PerkinElmer SureFire Ultra pSTAT4 (Tyrosine 693) Assay. […]
Make master mix of Protein A donor beads using the following volumes per well: 5.88 μL Dilution Buffer and 0.12 μL […]. […] Read plate on Perkin Elmer Envision. […]
Certain compounds listed in Table C were tested for Tyk2 activity following the aforementioned Tyk2 (Tyk2/Jak2 PSTAT4 T-Blast) alpha screen assay and Jak2 (PTATS UT7) alpha screen assay. […] Selectivity for Tyk2 over Jak1, and Tyk2 over Jak2, are calculated from the tabulated activity data.

pEC50: −log10 of the molar value.

T1 sequence (P29597 whole entry, other chains not shown): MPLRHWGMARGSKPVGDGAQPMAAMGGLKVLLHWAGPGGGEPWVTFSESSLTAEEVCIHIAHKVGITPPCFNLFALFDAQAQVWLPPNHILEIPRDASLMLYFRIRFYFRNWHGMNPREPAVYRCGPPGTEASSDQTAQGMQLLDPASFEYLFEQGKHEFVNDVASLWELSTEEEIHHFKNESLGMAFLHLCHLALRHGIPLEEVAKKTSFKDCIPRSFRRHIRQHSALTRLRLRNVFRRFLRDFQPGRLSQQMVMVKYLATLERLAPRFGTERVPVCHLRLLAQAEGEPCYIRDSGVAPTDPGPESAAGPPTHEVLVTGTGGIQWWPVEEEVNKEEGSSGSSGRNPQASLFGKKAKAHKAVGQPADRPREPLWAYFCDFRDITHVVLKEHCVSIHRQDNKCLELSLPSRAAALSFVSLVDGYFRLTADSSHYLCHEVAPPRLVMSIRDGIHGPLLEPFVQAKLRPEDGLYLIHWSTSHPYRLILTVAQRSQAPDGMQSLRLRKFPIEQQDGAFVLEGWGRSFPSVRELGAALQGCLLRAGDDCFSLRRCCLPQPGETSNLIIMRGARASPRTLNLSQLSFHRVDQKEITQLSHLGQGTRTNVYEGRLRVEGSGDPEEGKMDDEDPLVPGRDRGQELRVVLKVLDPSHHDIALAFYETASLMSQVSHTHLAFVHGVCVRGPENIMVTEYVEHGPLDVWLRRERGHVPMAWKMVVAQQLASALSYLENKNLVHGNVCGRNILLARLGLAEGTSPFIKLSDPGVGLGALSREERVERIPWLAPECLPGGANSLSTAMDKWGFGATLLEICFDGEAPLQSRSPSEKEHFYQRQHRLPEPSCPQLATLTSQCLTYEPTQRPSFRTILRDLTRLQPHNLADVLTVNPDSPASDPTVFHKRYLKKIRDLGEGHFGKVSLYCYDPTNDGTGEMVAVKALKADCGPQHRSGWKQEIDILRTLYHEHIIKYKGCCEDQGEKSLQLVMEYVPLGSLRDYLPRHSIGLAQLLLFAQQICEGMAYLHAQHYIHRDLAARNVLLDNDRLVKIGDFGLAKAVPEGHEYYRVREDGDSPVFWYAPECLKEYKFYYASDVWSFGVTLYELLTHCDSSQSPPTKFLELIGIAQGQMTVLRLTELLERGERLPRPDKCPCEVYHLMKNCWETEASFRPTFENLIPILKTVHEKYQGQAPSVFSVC

Turning to `CC(=O)Nc1cc2c(-c3cccc([C@@]4(CO)CCOC4)n3)c[nH]c2cn1` [21-NH (R-isomer)], the negative-log EC50 (pEC50) was 6.27.
